# Reference: patent US10881642B2, “Autophagy enhancer and use thereof” (Industry-Academic Cooperation Foundation, Yonsei University, priority 2016, dated 2021)
# Marks after values point to notes of the source that are not given here.
# Columns and labels:
# calcineurin = assay: Calcineurin phosphatase activity assay; type: cell-based; settings: lysates of Hepa1c1c7 cells
# [1] = Liver microsomal stability; type: in vitro ADME; settings: 30 min incubation with human liver microsome, 10 μM
# [2] = test system: INS-1 cells transfected with prepro-hIAPP-HA; assay: pro-hIAPP accumulation and apoptosis in transfected INS-1 cells; type: cell-based, mice; settings: for accumulation of pro-hIAPP dimers: western blot, anti-HA
# Procedure: (FIG. 13A) INS-1 cells transfected with non-amyloidogenic prepro-mIAPP-HA or amyloidogenic prepro-hIAPP-HA construct were treated with MSL or MSL-7 followed by western blot analysis using anti-HA antibody. (FIG. 13B) the transfected cells of (FIG. 13A) were treated with MSL-7 in the presence or absence of bafilomycin followed by western blot analysis using anti-HA antibody. (FIG. 13C) The transfected cells were treated with MSL-7 in the presence or absence of 3-MA, after which the amount of […] contained in the cell lysates were measured. (FIG. 13D) HFD-fed hIAPP+ mice were administered with MSL-7, and non-fasting glucose level was monitored. (FIG. 13E) IPGTT. (FIG. 13F) HFD-fed hIAPP+ mice were administered with MSL-7 for 8 weeks and the insulinogenic index was measured. (FIG. 13G) HFD-fed hIAPP+ mice were administered with MSL-7 for 8 weeks and the pancreatic section was obtained. All antibody was used for immunohistochemistry (left). The percentage of A11-[…] cells among DAPI+ cells (right). (FIG. 13H) FSB stained pancreatic section of HFD-fed hIAPP+ mice administered with MSL-7 for 8 weeks (left). Average fluorescence intensity/area (right).
# Screening of autophagy enhancer. […] Luciferase assay. […] Firefly luciferase was determined after mixing 5 μl of lysate with 25 μl of Luciferase Assay Reagent II. Renilla luciferase was then determined after further addition of 20 ul of Stop&Glo Reagent. […] Cytotoxicity was determined by the measurement of LDH release in cell culture media using the LDH kit (Roche), according to the protocol from the manufacturer. […] Imaging and image quantification. […] Formation of acidic vesicular organelles was quantitated by staining the cells with acridine orange (Invitrogen, 5 ug/ml, 10 min). […] Cells or tissues were solubilized in lysis buffer supplemented with protease and phosphatase inhibitors and protein concentration was measured by the Bradford method. Ten to 30 micrograms were loaded on 4-12% Bis-Tris gel (NUPAGE, Invitrogen) or 8-15% SDS-PAGE, transferred to PVDF membranes and analyzed by western blot using the ECL method (Pierce). […]
# ob/ob mice = assay: Toxicity: hemogram, blood chemistry and organ biopsy in ob/ob mice; type: in vivo; design: BUN: unit not given here; settings: for level of liver enzymes: 8-week treatment; for CBC / fatty liver (major organ biopsy) / tissue histology of major organs (heart, kidney, muscle, spleen, lung, pancreas): 8 weeks; for tissue histology of major organs (heart, kidney, muscle, spleen, lung, pancreas): biopsy; for ALB / ALP / ALT / AST / BUN / CA / CPK / CRE / DBIL / GGT / LDH / TCHO / TG: blood chemistry; for BASO / EOS / MONO / NEU / LYM / WBC / RBC / HGB / HCT / PLT: hemogram; for BASO / EOS: normal range 0.0-0.2; for MONO: normal range 0.0-0.4; for NEU: normal range 0.1-2.4; for LYM: normal range 0.9-9.3; for WBC: normal range 1.8-10.7; for RBC: normal range 6.36-9.42; for HGB: normal range 11.0-15.1; for HCT: normal range 38.5-59.0; for PLT: normal range 592-2972
# Procedure: Organs were harvested from ob/ob mice administered with MSL or MSL-7 for 8 weeks and stained with H&E for histological analysis. […] Other than that, no significant changes were observed (Scale Bar. 500 μm). […]
# Finally, we studied whether MSL or MSL-7 has systemic toxicity. CBC was not changed by MSL or MSL-7 (Table 1).
# Finally, in the present disclosure, the toxicity of the present enhancers were tested. The 8-week treatment of MSL or MSL-7 improved the metabolic profile, and reduced the level of liver enzymes (Table 1 below). […] In the major organ biopsy, there were found no side effects. Rather the fatty liver was improved (FIG. 14).
# Table 1 indicates the hemogram and blood chemistry analyzed after administration of the present autophagy enhancer for 8 week in vivo. […] Other than that, there are no adverse changes were found.
SMILES,calcineurin activity (calcineurin),"microsomal stability, remaining [1]",accumulation of pro-hIAPP dimers [2],level of liver enzymes (ob/ob mice),CBC (ob/ob mice),fatty liver (major organ biopsy) (ob/ob mice),"tissue histology of major organs (heart, kidney, muscle, spleen, lung, pancreas) (ob/ob mice)",ALB (ob/ob mice; 8 week) [g/dL],ALP (ob/ob mice; 8 week),ALT (ob/ob mice; 8 week),AST (ob/ob mice; 8 week),BUN (ob/ob mice; 8 week),CA (ob/ob mice; 8 week) [mg/dL],CPK (ob/ob mice; 8 week) [U/L],CRE (ob/ob mice; 8 week) [mg/dL],DBIL (ob/ob mice; 8 week) [mg/dL],GGT (ob/ob mice; 8 week) [U/L],LDH (ob/ob mice; 8 week),TCHO (ob/ob mice; 8 week) [mg/dL],TG (ob/ob mice; 8 week),also measured
"COc1oc(-c2ccccc2Cl)nc1S(=O)(=O)c1ccccc1 [MSL-7, 2-(2-chlorophenyl)-5-methoxy-4-(phenylsulfonyl) oxazole]",calcineurin activation in a dose-dependent manner,90.5%,reduced,reduced,not changed,improved,no significant alteration,1.1 ± 1.0,278 ± 26.11^b U/L,146.9 ± 21.59^b U/L,153.8 ± 12.81^b U/L,20 ± 0.89,10.75 ± 0.32,241.3 ± 18.19,1 ± 0,<0.5,<5,810 ± 112.40^c U/L,136.9 ± 9.73,78.6 ± 22.50^b mg/dL,apoptosis of cells transfected with prepro-hIAPP ([2]; in the presence of 3-MA): significantly reduced; serum TG level and LDH level compared to MSL (ob/ob mice; 8 week): significantly lower; BASO (ob/ob mice; 8 week): 0.01 ± 0.01 K/μL; EOS (ob/ob mice; 8 week): 0.04 ± 0.01 K/μL; MONO (ob/ob mice; 8 week): 0.28 ± 0.05 K/μL; NEU (ob/ob mice; 8 week): 1.97 ± 0.16 K/μL; LYM (ob/ob mice; 8 week): 3.97 ± 0.38 K/μL; WBC (ob/ob mice; 8 week): 6.26 ± 0.52 K/μL; RBC (ob/ob mice; 8 week): 9.22 ± 0.12 M/μL; HGB (ob/ob mice; 8 week): 13.60 ± 0.19 g/dL; HCT (ob/ob mice; 8 week): 49.25 ± 0.78%; PLT (ob/ob mice; 8 week): 1031 ± 55 K/μL
CSc1oc(-c2ccccc2)nc1S(=O)(=O)c1ccc(F)cc1 [MSL],significantly increased,less than 10%,reduced,reduced,not changed,improved,no significant alteration,1.1 ± 0.10,267 ± 35.02^b U/L,183.7 ± 35.71^b U/L,158.1 ± 16.39^c U/L,21.13 ± 1.38,11.13 ± 0.24,323.8 ± 29.68,0.75 ± 0.14,<0.5,<5,1428 ± 148.90^b U/L,150 ± 12.22,13.9 ± 16.41^a mg/dL,BASO (ob/ob mice; 8 week): 0.05 ± 0.01 K/μL; EOS (ob/ob mice; 8 week): 0.165 ± 0.06 K/μL; MONO (ob/ob mice; 8 week): 0.35 ± 0.109 K/μL; NEU (ob/ob mice; 8 week): 2.34 ± 0.51 K/μL; LYM (ob/ob mice; 8 week): 4.73 ± 0.95 K/μL; WBC (ob/ob mice; 8 week): 7.64 ± 1.54 K/μL; RBC (ob/ob mice; 8 week): 8.82 ± 0.54 M/μL; HGB (ob/ob mice; 8 week): 14.30 ± 0.56 g/dL; HCT (ob/ob mice; 8 week): 46.9 ± 2.4%; PLT (ob/ob mice; 8 week): 1081 ± 61 K/μL
